# Results published in US20070191402A1, “Method of searching substrate having antidiabetic activity” (KYOWA HAKKO KOGYO CO., LTD., priority 2002, published 2007).
# What was measured:
# [1] = system: pancreatic β cell (MIN6 cell); experiment: Inhibition of binding of [3H]-labeled Compound 16 to pancreatic β cell; design: species or system murine; conditions: test compound 1 μmol/l; 10 nmol/l [3H]-labeled Compound 16; MIN6 cell, 4° C.
# Description: MIN6 cell cultured to almost confluence in a 24-well plate for cell culture (manufactured by Corning) was washed twice with KRH buffer (119 mmol/l NaCl, 4.74 mmol/KCl, 2.54 mmol/l calcium chloride (CaCl2), 1.19 mmol/l magnesium sulfate (MgSO4), 1.19 mmol/l potassium dihydrogen phosphate (KH2PO4), 10 mmol/l HEPES, 2 mmol/l glucose, 0.1 w/v % bovine serum albumin (BSA), pH 7.3). Subsequently, the KRH buffer was added at 1 ml per well, for preincubation at 37° C. for 45 minutes. After preincubation, the supernatant was discarded, and 0.15 ml of the KRH buffer, […] at 4° C. for one hour or longer until the reaction reached equilibrium. Subsequently, the cell was washed twice using the KRH buffer. The KRH buffer was added at 2 ml per well, which was then left to stand at room temperature for 20 minutes. The cell was again washed twice by using the KRH buffer. The radioactivity remaining in each well was counted with a liquid scintillation counter to determine the binding amount.
# The difference between the binding amount of the [^3H]-labeled Compound 16 (total binding amount) under conditions with no addition of any test compound and the binding amount of the [^3H]-labeled Compound 16 (non-specific binding amount) under conditions in the presence of the Compound 16 at 10 μmol/l was defined as specific binding amount.
# According to the method described in Example 5, a substance having anti-diabetic activity was screened for, using the inhibitory activity of the binding between pancreatic β cells and [^3H]-labeled Compound 16. A tested substance was dissolved in dimethylsulfoxide and then added to give a final concentration of 1 μmol/l. The radioactivity with addition of the unlabeled Compound 16 was defined as the non-specific binding amount and the radioactivity without addition of the unlabeled Compound 16 was defined as the total binding amount, and then the individual specific binding amounts were calculated by the method described in Example 6. Using the following formula, the binding inhibition ratio was determined. [formula]
# MIN6 cell = experiment: Insulin secretion test using MIN6 cell; type: cell-based, murine; conditions: MIN6 cell; glucose 14.5 mmol/l or 8.4 mmol/l
# Description: Culturing MIN6 cell and testing insulin secretion using MIN6 cell were carried out according to the method described in Diabetorogia, 36, 1139-1145 (1993).
# In other words, the influence of a compound on the insulin secretion activity in the presence of 14.5 mmol/l glucose was assessed by assaying the amount of insulin in the cell culture supernatant collected as follows.
# The MIN6 cell cultured in a 24-well plate was washed twice with 1 ml of buffer A [119 mmol/l NaCl, 4.74 mmol/l KCl, 2.54 mmol/l CaCl2, 1.19 mmol/l MgSO4, 1.19 mmol/l KH2PO4, 10 mmol/l 2-[4-(2-hydroxylethyl)-1-piperadinyl]ethanesulfonic acid, 0.1% BSA, pH 7.3] containing 2 mmol/l glucose. Subsequently, the resulting cell was incubated in 1 ml of the buffer A containing 2 mmol/l glucose at 37° C. for 45 minutes. The culture supernatant was exchanged with the buffer A (1 ml) containing test compounds of various concentrations and 8.4 mmol/l glucose and incubated at 37° C. for 45 minutes to collect the culture supernatant.
# Antibody-reactive insulin secreted in the culture supernatant was assayed by radioimmunoassay [Methods in Investigative and Diagnostic Endocrinology, Vol. 2A, 2B, North-Holland Publishing Co., Amsterdam (1973)] after the culture supernatant was diluted with phosphate buffer containing 1% BSA, 0.1% Tween 20, 0.12% EDTA 2Na, and 0.1% sodium azide. A standard curve was prepared by using human insulin as the standard substance, and individual insulin values were calculated on the basis of the curve.
# p31 protein = molecular target: T1, p31 protein (Mus musculus, UniProt Q99LB2); experiment: Inhibition of binding of p31 protein from MIN6 solubilized membrane fraction to Compound 155-immobilized particle (SDS-PAGE); conditions: 500 μmol/l tested substance, band on SDS-PAGE
# T1 construct: endogenous in cells; host or cells: MIN6 (murine pancreatic beta cell line), digitonin-solubilized membrane fraction
# T1 sequence (Q99LB2 20-279 limits assumed): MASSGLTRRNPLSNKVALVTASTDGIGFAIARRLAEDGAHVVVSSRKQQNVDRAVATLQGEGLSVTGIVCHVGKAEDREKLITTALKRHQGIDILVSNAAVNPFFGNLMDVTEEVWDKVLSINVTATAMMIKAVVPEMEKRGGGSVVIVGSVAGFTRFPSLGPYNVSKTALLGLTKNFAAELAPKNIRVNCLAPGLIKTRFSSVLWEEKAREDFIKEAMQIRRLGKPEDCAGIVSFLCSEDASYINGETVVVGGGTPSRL
# Description: The solubilized membrane fraction of MIN6 as prepared in Example 12 was 10-fold diluted with the buffer B. The compound represented by Compound No. 16 (hereinafter referred to as “Compound 16”) at 500 μmol/l was added to 1 ml of the resulting dilution and gently stirred at 4° C. for 2 hours. As a control, the solubilized membrane fraction of MIN6 without addition of the Compound 16 was 10-fold diluted with buffer C [20 mmol/l HEPES, pH 7.4, 2 mmol/l EDTA, 150 mmol/l NaCl, 1% digitonin, 1 mmol/l PMSF, 1 μg/ml aprotinin], and 1 ml of the resulting dilution was gently stirred at 4° C. for 2 hours. Then, a particle immobilizing a compound represented by Compound No. 155 (hereinafter referred to as “Compound 155-immobilized particle”) as prepared in Example 8 was added to the solubilized membrane fraction solution with addition of the Compound 16 and the solubilized membrane fraction solution without addition of any tested substance and gently stirred at 4° C. for 30 minutes. Subsequently, the resulting solutions were centrifuged (12,000 rpm, one minute, 4° C.) to precipitate the particle to thereby remove the supernatants. Then, 750 μl of the buffer C was added and stirred for 3 seconds, followed by centrifugation (12,000 rpm, one minute, 4° C.), to precipitate the particle to remove the supernatant. Then, 750 μl of buffer D [20 mmol/l HEPES, pH 7.4, 2 mmol/l EDTA] was added and stirred for 3 seconds, followed by centrifugation (12,000 rpm, one minute, 4° C.), to precipitate the particle to remove the supernatant. Subsequently, 30 μl of an SDS-polyacrylamide gel electrophoresis sample buffer containing β-mercaptoethanol was added to solubilize the protein binding to Compound 155-immobilized particle, followed by SDS-polyacrylamide gel electrophoresis. Through the purification from the cell extract solution by adding Compound 16 via Compound 155-immobilized particle, p31 protein in which its specific binding to Compound 155-immobilized particle was inhibited by the compound represented by Compound No. 16 was found. […]
structure (smiles),measurement,setting,value
"CCCN1C(=O)N2CC(Cc3ccccc3)N=C2c2[nH]c(C3CCCC3)nc21 (single isomer, unassigned) [compound 17]",Binding inhibitory activity (%),[1],5.4%
same,Insulin secretory activity (%),MIN6 cell,15.8%
same,inhibition of the binding of the p31 protein to the Compound 155-immobilized particle,p31 protein,cannot inhibit the binding of the p31 protein
